PubChem BioAssay AID2060617 (Molecular Pharmacology Branch, DTP, NCI, 2025)
Values joined by “and” are separate entries in the source; they are usually repeats but may differ in a detail not shown here. Equal entries are not always repeated.

Tested on: 485368-065-R4-J2-PDC spheroids with HUVEC/MSC, viability
Experiment: Anticancer human tumor 485368-065-R4-J2-PDC patient-derived pancreatic carcinoma cell line growth inhibition [CLK]
Settings: for viability, T/C: stronger effect = lower value
Procedure, shortened: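 Multi-cell-type spheroids combined patient-derived tumor cells with HUVEC endothelial cells and human mesenchymal stem cells. Paired agents were dosed in half-log steps down from about clinical Cmax, or from 10 microM where Cmax was unknown.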

[1] = curve of first compound, second compound 0.0316 µM
[2] = curve of first compound, second compound 0.1 µM
[3] = curve of first compound, second compound 0.316 µM
[4] = curve of first compound, second compound 1 µM
[5] = curve of first compound, second compound 3.16 µM
[6] = curve of first compound, second compound 10 µM
[7] = second compound 0.0316 µM, first compound 0.0316 µM
[8] = second compound 0.0316 µM, first compound 0.1 µM
[9] = second compound 0.0316 µM, first compound 0.316 µM
[10] = second compound 0.0316 µM, first compound 1 µM
[11] = second compound 0.0316 µM, first compound 3.16 µM
[12] = second compound 0.0316 µM, first compound 10 µM
[13] = second compound 0.1 µM, first compound 0.0316 µM
[14] = second compound 0.1 µM, first compound 0.1 µM
[15] = second compound 0.1 µM, first compound 0.316 µM
[16] = second compound 0.1 µM, first compound 1 µM
[17] = second compound 0.1 µM, first compound 3.16 µM
[18] = second compound 0.1 µM, first compound 10 µM
[19] = second compound 0.316 µM, first compound 0.0316 µM
[20] = second compound 0.316 µM, first compound 0.1 µM
[21] = second compound 0.316 µM, first compound 0.316 µM
[22] = second compound 0.316 µM, first compound 1 µM
[23] = second compound 0.316 µM, first compound 3.16 µM
[24] = second compound 0.316 µM, first compound 10 µM
[25] = second compound 1 µM, first compound 0.0316 µM
[26] = second compound 1 µM, first compound 0.1 µM
[27] = second compound 1 µM, first compound 0.316 µM
[28] = second compound 1 µM, first compound 1 µM
[29] = second compound 1 µM, first compound 3.16 µM
[30] = second compound 1 µM, first compound 10 µM
[31] = second compound 3.16 µM, first compound 0.0316 µM
[32] = second compound 3.16 µM, first compound 0.1 µM
[33] = second compound 3.16 µM, first compound 0.316 µM
[34] = second compound 3.16 µM, first compound 1 µM
[35] = second compound 3.16 µM, first compound 3.16 µM
[36] = second compound 3.16 µM, first compound 10 µM
[37] = second compound 10 µM, first compound 0.0316 µM
[38] = second compound 10 µM, first compound 0.1 µM
[39] = second compound 10 µM, first compound 0.316 µM
[40] = second compound 10 µM, first compound 1 µM
[41] = second compound 10 µM, first compound 3.16 µM
[42] = second compound 10 µM, first compound 10 µM
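Further: spheroids exposed to compounds for seven days.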
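Wherever viability, T/C is given: 100% = DMSO vehicle control wells.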

`O=c1[nH]cc(F)c(=O)[nH]1` + CN1CCN(c2cc(C(=O)Nc3cc4cc(-c5cnn(C)c5)ccc4cn3)ccn2)CC1 was tested, and the IC50 [1] was > 10000 nM, the IC50 [2] was > 10000 nM and the IC50 [3] was > 10000 nM. For the same compound, the IC50 [4] was < 31.6 nM, the IC50 [5] was < 31.6 nM and the IC50 [6] was < 31.6 nM. It also gave a viability, T/C [7] of 99.3%, a viability, T/C [8] of 108% and a viability, T/C [9] of 102%. The viability, T/C [10] was 112%, the viability, T/C [11] was 99.6% and the viability, T/C [12] was 82%. The viability, T/C [13] was 106%, the viability, T/C [14] was 114% and the viability, T/C [15] was 115%. For the same compound, the viability, T/C [16] was 110%, the viability, T/C [17] was 114% and the viability, T/C [18] was 81.8%. It also gave a viability, T/C [19] of 90%, a viability, T/C [20] of 89.7% and a viability, T/C [21] of 87.6%. The viability, T/C [22] was 91.8%, the viability, T/C [23] was 101% and the viability, T/C [24] was 62%. It also gave a viability, T/C [25] of 1.1%, a viability, T/C [26] of 1.31% and a viability, T/C [27] of 0.78%. The viability, T/C [28] was 0.63%, the viability, T/C [29] was 0.79% and the viability, T/C [30] was 1.51%. The viability, T/C [31] was 1.14%, the viability, T/C [32] was 2.13% and the viability, T/C [33] was 1.09%. The viability, T/C [34] was 1.94%, the viability, T/C [35] was 1.84% and the viability, T/C [36] was 2%. For the same compound, the viability, T/C [37] was 1.01%, the viability, T/C [38] was 2.05% and the viability, T/C [39] was 2.31%. For the same compound, the viability, T/C [40] was 1.29%, the viability, T/C [41] was 1.06% and the viability, T/C [42] was 1.21%.

For `COc1c(OCCCN2CCOCC2)ccc2c3n(c(=NC(=O)c4cnc(N)nc4)nc12)CCN3`, the viability, T/C (compound 0.00316 µM) was 97% and 92.1%, the viability, T/C (compound 0.01 µM) was 101% and 121% and the viability, T/C (compound 0.0316 µM) was 109% and 111%. For the same compound, the viability, T/C (compound 0.1 µM) was 77.3% and 65.7%, the viability, T/C (compound 0.316 µM) was 50.9% and 52% and the viability, T/C (compound 1 µM) was 41.1% and 39.6%. The IC50 (curve of compound) was 281 nM and 248 nM.

With `O=C(c1cc(Cc2n[nH]c(=O)c3ccccc23)ccc1F)N1CCN(C(=O)C2CC2)CC1` the viability, T/C (compound 0.0316 µM) was 100% and 107%, the viability, T/C (compound 0.1 µM) was 97.7% and 89.2% and the viability, T/C (compound 0.316 µM) was 88.7% and 107%. The viability, T/C (compound 1 µM) was 98.2% and 104%, the viability, T/C (compound 3.16 µM) was 98.8% and 108% and the viability, T/C (compound 10 µM) was 89.5% and 94.8%. For the same compound, the IC50 (curve of compound) was > 10000 nM.

With `CN1CCN(c2cc(C(=O)Nc3cc4cc(-c5cnn(C)c5)ccc4cn3)ccn2)CC1` the viability, T/C (compound 0.0316 µM) was 95.6% [middle of 12 runs], the viability, T/C (compound 0.316 µM) was 83% [middle of 12 runs] and the viability, T/C (compound 1 µM) was 0.9% [middle of 11 runs]. For the same compound, the viability, T/C (compound 3.16 µM) was 1.39% [middle of 12 runs], the viability, T/C (compound 10 µM) was 1.68% [middle of 11 runs] and the IC50 (compound alone, run of 08/14/2023) was 504 nM [middle of 12 runs].

With `CC(=O)O[C@H]1C(=O)[C@@]2(C)[C@H]([C@H](OC(=O)c3ccccc3)[C@]3(O)C[C@H](OC(=O)[C@H](O)[C@@H](NC(=O)c4ccccc4)c4ccccc4)C(C)=C1C3(C)C)[C@]1(OC(C)=O)CO[C@@H]1C[C@@H]2O` + CN1CCN(c2cc(C(=O)Nc3cc4cc(-c5cnn(C)c5)ccc4cn3)ccn2)CC1 the IC50 [1] was < 31.6 nM, the IC50 [2] was < 31.6 nM and the IC50 [3] was < 31.6 nM. For the same compound, the IC50 [4] was < 31.6 nM, the IC50 [5] was < 31.6 nM and the IC50 [6] was < 31.6 nM. For the same compound, the viability, T/C [7] was 49.1%, the viability, T/C [8] was 41.3% and the viability, T/C [9] was 38.5%. It also gave a viability, T/C [10] of 46.2%, a viability, T/C [11] of 39.5% and a viability, T/C [12] of 55.3%. It also gave a viability, T/C [13] of 37.3%, a viability, T/C [14] of 39.4% and a viability, T/C [15] of 30.8%. For the same compound, the viability, T/C [16] was 36%, the viability, T/C [17] was 36.8% and the viability, T/C [18] was 45.2%. The viability, T/C [19] was 30.7%, the viability, T/C [20] was 28.5% and the viability, T/C [21] was 28.2%. It also gave a viability, T/C [22] of 25.4%, a viability, T/C [23] of 28.7% and a viability, T/C [24] of 35.5%. The viability, T/C [25] was 0.77%, the viability, T/C [26] was 0.76% and the viability, T/C [27] was 0.7%. It also gave a viability, T/C [28] of 1.78%, a viability, T/C [29] of 1% and a viability, T/C [30] of 1.89%. For the same compound, the viability, T/C [31] was 2.34%, the viability, T/C [32] was 2.46% and the viability, T/C [33] was 1.31%. The viability, T/C [34] was 2.13%, the viability, T/C [35] was 1.56% and the viability, T/C [36] was 3.41%. The viability, T/C [37] was 1.54%, the viability, T/C [38] was 2.06% and the viability, T/C [39] was 2.24%. The viability, T/C [40] was 1.65%, the viability, T/C [41] was 2.6% and the viability, T/C [42] was 1.89%.

For `CC1COCCN1c1cc(C2(S(C)(=N)=O)CC2)nc(-c2ccnc3[nH]ccc23)n1` (stereo unspecified), the viability, T/C (compound 0.0316 µM) was 91.5% and 90.7%, the viability, T/C (compound 0.1 µM) was 97.5% and 93.1% and the viability, T/C (compound 0.316 µM) was 94.5% and 104%. For the same compound, the viability, T/C (compound 1 µM) was 108% and 91.3%, the viability, T/C (compound 3.16 µM) was 109% and 108% and the viability, T/C (compound 10 µM) was 102% and 113%. The IC50 (curve of compound) was > 10000 nM.
